# Assays:
# [1] = biological target: Proto-oncogene tyrosine-protein kinase Src (Homo sapiens, UniProt P12931); experiment: Selectivity interaction (KinomeScan (DiscoverX)) EUB0001049a SRC; conditions: at 1 µM
# [2] = system: Fibroblast growth factor receptor 3 (Homo sapiens), P22607 [G697C]; experiment: (§1) Selectivity interaction (KinomeScan (DiscoverX)) EUB0000229b FGFR3; conditions: at 1 µM
# [3] = biological target: Fibroblast growth factor receptor 3 (Homo sapiens, UniProt P22607); experiment: as §1; conditions: at 10 µM
# [4] = biological target: 5'-AMP-activated protein kinase catalytic subunit alpha-1 (Homo sapiens, UniProt Q13131); experiment: Selectivity interaction (ActivX KiNativ screen (kinase selectivity in THP-1 cell lysates)) EUB0000639a PRKAA1; assay type: subcellular; conditions: lysate, at 5 µM
# [5] = biological target: Ribosomal protein S6 kinase alpha-3 (Homo sapiens, UniProt P51812); experiment: Selectivity interaction (ActivX KiNativ screen (kinase selectivity in THP-1 cell lysates)) EUB0000639a RPS6KA3; assay type: subcellular; conditions: lysate, at 1 µM
# [6] = biological target: CDK7/Cyclin H/MNAT1 (Homo sapiens) (UniProt P51946+P50613+P51948); experiment: Selectivity interaction (Kinase panel (Invitrogen)) EUB0000639a CDK7; assay type: protein-complex assay; conditions: at 200 nM
# [7] = biological target: Tyrosine-protein kinase Fgr (Homo sapiens) (UniProt P09769); experiment: Selectivity interaction (KinomeScan (DiscoverX)) EUB0000595a FGR; conditions: at 10 µM
# [8] = biological target: T1, Phosphatidylinositol 5-phosphate 4-kinase type-2 gamma (Homo sapiens) (UniProt Q8TBX8); experiment: Selectivity interaction (KinomeScan (DiscoverX)) EUB0000595a PIP4K2C; conditions: at 10 µM
# T1 sequence (whole entry): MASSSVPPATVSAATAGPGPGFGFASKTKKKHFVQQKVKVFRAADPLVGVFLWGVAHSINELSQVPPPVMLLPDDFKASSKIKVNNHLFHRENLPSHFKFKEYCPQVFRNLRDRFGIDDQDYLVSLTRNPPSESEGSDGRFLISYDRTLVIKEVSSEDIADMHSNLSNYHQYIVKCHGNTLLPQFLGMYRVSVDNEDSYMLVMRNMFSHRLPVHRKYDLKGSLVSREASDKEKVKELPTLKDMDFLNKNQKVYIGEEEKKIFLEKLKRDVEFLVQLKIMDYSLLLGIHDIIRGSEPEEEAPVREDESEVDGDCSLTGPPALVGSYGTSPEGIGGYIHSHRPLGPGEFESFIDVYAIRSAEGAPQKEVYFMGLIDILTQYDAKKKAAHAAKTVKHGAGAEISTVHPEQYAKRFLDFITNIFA
# [9] = biological target: T2, Testis-specific serine/threonine-protein kinase 3 (Homo sapiens) (UniProt Q96PN8); experiment: Selectivity interaction (KinomeScan (DiscoverX)) EUB0000695a TSSK3; conditions: at 100 nM
# T2 sequence (whole entry): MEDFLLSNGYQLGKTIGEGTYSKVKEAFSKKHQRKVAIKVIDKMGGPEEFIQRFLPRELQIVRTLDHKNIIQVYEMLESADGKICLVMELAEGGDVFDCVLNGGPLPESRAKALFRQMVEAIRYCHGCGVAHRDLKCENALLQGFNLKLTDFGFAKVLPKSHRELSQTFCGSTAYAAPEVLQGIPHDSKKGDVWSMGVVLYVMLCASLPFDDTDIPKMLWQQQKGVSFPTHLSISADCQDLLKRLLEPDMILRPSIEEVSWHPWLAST
# [10] = biological target: T3, Dual specificity mitogen-activated protein kinase kinase 7 (Homo sapiens) (UniProt O14733); experiment: Selectivity interaction (KinomeScan (DiscoverX)) EUB0000607a MAP2K7; conditions: at 10 µM
# T3 sequence (whole entry): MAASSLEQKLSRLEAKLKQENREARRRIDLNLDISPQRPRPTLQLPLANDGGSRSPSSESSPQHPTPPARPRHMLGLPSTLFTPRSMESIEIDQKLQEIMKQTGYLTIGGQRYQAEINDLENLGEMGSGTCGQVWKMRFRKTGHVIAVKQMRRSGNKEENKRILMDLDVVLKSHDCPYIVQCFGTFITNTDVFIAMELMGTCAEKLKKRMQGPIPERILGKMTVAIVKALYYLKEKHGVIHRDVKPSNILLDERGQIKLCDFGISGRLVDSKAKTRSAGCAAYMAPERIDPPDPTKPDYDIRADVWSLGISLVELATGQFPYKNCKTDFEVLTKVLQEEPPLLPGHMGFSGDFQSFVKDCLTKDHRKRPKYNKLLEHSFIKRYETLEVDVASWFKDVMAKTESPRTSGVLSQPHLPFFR
# [11] = biological target: T4, Tyrosine-protein kinase Mer (Homo sapiens) (UniProt Q12866); experiment: Selectivity interaction (LanthaScreen Eu Kinase Binding Assay) EUB0001632a MERTK; conditions: at 10 µM
# T4 sequence (whole entry): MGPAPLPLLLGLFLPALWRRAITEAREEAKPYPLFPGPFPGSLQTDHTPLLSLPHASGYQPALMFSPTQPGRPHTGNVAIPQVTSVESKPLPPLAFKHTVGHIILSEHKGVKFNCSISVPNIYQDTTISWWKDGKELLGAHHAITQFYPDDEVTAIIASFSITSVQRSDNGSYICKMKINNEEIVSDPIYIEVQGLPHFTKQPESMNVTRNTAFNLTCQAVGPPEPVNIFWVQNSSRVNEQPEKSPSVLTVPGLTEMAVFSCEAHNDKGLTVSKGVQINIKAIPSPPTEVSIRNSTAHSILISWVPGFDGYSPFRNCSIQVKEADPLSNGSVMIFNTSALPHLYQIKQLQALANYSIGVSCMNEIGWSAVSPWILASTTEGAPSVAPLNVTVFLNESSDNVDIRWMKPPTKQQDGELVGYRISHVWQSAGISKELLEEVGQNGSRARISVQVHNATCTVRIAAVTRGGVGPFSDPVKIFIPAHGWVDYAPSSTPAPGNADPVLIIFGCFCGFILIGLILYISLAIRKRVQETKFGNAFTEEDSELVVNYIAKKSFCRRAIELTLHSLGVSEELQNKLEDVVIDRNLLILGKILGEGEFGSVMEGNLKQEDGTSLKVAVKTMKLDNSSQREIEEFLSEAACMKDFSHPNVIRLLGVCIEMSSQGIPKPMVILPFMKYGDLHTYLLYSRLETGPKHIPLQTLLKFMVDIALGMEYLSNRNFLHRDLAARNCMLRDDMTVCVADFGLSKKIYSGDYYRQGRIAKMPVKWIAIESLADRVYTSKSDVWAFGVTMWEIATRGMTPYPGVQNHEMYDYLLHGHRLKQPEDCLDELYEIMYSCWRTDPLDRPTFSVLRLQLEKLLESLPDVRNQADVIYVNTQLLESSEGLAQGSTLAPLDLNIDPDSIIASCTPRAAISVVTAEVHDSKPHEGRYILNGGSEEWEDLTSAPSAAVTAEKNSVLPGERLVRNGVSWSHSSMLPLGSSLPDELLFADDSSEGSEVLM
# 5'-AMP-activated protein kinase catalytic subunit alpha-1, sequence (Q13131 whole entry, looked up): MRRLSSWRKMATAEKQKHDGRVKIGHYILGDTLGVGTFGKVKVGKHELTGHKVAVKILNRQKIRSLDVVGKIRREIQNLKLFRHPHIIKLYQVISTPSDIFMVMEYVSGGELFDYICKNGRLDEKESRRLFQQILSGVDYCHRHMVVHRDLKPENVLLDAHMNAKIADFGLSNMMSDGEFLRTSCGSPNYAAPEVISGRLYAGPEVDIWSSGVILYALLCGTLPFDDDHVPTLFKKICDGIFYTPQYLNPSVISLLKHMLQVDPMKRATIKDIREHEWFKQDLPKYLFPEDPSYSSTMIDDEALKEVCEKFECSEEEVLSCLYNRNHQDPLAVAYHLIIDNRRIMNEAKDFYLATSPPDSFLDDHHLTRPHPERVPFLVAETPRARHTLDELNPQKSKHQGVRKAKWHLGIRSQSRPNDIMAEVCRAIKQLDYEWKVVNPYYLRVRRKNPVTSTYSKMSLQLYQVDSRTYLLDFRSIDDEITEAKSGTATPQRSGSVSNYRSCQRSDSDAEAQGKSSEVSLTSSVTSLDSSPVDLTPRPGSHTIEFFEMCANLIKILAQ
# Fibroblast growth factor receptor 3, sequence (P22607 23-806 limits assumed): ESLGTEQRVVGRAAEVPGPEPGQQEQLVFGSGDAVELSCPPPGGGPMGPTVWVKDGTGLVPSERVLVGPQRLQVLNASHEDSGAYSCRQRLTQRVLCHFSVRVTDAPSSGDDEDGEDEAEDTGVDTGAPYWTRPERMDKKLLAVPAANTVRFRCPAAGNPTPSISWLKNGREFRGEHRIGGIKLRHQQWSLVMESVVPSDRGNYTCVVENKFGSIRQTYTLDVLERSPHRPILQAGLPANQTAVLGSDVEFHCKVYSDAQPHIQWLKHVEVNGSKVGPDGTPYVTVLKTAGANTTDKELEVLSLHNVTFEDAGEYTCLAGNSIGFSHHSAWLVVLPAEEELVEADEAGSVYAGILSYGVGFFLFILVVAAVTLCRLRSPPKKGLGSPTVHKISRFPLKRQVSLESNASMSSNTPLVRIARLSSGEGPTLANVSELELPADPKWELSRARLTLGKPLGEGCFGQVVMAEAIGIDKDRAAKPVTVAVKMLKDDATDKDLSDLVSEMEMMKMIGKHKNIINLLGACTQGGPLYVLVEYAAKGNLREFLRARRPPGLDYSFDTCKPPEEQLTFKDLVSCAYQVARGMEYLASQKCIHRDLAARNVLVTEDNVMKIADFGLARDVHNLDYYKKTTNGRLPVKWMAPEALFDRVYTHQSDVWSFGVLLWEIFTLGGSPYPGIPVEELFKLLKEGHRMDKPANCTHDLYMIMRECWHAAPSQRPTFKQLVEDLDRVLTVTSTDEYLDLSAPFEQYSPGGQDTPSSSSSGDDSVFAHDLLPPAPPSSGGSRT
# Ribosomal protein S6 kinase alpha-3, sequence (P51812 whole entry): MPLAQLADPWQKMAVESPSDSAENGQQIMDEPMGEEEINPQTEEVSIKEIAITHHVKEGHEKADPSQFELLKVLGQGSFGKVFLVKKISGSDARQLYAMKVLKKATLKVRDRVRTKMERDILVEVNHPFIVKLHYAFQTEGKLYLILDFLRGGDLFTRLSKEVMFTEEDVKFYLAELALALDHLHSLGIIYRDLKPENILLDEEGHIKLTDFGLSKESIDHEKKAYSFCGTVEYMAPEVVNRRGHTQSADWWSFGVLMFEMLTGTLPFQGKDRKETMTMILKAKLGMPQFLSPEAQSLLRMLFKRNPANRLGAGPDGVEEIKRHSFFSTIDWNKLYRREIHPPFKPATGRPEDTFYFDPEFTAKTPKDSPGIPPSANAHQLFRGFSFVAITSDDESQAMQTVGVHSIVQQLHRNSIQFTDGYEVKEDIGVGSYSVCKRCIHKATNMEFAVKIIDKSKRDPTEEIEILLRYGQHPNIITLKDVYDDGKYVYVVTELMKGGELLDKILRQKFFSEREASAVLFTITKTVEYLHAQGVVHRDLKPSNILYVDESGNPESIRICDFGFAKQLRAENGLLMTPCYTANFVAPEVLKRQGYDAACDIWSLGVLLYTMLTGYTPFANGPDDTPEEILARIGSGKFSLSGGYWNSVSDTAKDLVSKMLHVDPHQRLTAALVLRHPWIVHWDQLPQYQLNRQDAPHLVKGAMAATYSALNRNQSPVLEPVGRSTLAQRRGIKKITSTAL
# Tyrosine-protein kinase Fgr (Homo sapiens), sequence (P09769 2-529 limits assumed): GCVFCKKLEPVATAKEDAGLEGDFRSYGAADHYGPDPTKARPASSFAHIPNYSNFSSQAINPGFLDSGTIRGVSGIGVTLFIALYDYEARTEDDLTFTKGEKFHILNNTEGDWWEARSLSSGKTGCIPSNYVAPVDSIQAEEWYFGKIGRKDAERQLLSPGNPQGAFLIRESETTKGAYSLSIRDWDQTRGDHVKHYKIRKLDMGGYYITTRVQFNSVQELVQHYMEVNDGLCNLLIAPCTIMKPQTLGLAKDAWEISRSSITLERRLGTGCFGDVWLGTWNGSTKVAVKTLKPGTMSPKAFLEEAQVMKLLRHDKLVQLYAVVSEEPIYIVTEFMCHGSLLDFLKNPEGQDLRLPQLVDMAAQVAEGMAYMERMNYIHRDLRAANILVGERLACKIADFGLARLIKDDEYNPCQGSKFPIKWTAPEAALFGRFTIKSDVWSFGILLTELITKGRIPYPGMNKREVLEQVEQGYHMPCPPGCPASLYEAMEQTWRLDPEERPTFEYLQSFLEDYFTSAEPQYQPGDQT
# Proto-oncogene tyrosine-protein kinase Src, sequence (P12931 2-536 limits assumed): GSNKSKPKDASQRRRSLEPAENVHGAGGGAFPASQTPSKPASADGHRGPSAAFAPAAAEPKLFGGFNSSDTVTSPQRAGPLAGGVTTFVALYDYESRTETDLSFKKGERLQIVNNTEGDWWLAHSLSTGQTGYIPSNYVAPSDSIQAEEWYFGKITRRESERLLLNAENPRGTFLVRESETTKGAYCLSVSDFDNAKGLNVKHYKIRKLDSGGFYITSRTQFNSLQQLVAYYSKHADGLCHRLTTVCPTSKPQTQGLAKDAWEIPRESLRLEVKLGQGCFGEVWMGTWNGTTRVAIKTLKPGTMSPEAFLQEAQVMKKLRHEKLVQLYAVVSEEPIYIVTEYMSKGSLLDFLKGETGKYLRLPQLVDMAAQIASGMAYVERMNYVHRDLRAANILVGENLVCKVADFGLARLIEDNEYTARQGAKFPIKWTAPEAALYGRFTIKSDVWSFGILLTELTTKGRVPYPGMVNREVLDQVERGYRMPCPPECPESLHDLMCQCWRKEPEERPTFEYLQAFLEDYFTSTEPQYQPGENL
# Fibroblast growth factor receptor 3 (Homo sapiens), P22607 [G697C], sequence (P22607 whole entry G697C): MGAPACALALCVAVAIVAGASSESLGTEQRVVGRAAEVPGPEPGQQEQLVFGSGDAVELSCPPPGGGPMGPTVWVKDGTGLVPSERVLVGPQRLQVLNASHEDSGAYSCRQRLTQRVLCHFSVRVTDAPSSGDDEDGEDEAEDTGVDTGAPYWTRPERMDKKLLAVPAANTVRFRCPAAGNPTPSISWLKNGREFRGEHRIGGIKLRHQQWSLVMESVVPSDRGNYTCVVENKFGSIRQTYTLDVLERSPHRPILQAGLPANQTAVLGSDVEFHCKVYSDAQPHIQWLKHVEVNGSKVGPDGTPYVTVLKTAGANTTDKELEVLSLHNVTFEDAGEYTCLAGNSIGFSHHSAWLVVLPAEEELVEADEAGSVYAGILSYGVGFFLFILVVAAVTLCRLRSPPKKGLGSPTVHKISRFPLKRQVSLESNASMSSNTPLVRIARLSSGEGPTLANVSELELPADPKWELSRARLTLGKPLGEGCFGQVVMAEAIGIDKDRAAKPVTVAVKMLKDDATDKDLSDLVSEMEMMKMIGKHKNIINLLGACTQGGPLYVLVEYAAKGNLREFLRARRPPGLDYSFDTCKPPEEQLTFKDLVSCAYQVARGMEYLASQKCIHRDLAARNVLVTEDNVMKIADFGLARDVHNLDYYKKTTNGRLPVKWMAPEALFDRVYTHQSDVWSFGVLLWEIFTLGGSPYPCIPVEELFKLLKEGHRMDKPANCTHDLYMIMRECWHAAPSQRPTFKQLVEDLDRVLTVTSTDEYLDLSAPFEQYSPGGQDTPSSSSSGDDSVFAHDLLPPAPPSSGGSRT
smiles,measurement,setting,value
COc1cc(Nc2nc(C)cc(-c3cnn4nc(OC)ccc34)n2)cc(C(F)(F)F)c1,% of control,[1],100%
COc1cc(N(C)c2ccnc3ccc(C(F)(F)F)cc23)cc(OC)c1OC,% binding,[2],90%
same,% binding,[3],100%
CC[C@@H]1[C@H](F)C(=O)N[C@@H]1COc1nccc2cc(C(N)=O)c(OC)cc12 [ZIMLOVISERTIB],% of inhibition,[4],18.6%
same,% of inhibition,[5],6.6%
same,% of inhibition,[6],2.84%
COCC(=O)NC/C=C/c1ccc2ncnc(Nc3ccc(Oc4ccc(C)nc4)c(C)c3)c2c1 [CP-724714],% of control,[7],89%
same,% of control,[8],84%
Cc1cc(F)c(C(=O)Nc2cccc(-c3nncn3C(C)C)n2)cc1-n1cnc(C2CC2)c1,% of control,[9],57%
CNC(=O)Nc1ccc(-c2nc(N3CC4CCC(C3)O4)c3cnn(C4CCC5(CC4)OCCO5)c3n2)cc1,% of control,[10],100%
Cn1cc(-n2cnc3c(NCc4nc5cc(Cl)c(Cl)cc5[nH]4)nc(N4CCOCC4)nc32)cn1,% of inhibition,[11],-48.1%
